# Results taken from patent US10111890B2, “9-aminomethyl minocycline compounds and uses thereof” (Paratek Pharmaceuticals, Inc., priority 2016, dated 2018).
# What was measured:
# [1] = system: ABSSSI known or suspected to be due to Gram-positive pathogens; test: Phase 3 oral omadacycline vs oral linezolid in ABSSSI: Investigator's Assessment of Clinical Response at PTE; assay type: in vivo, human; details: for Overall Clinical Success at PTE, %: micro-mITT, % of N1
# [2] = Phase 3 oral omadacycline vs oral linezolid in ABSSSI: safety (adverse events, TEAEs, vital signs, ECG, laboratory); assay type: in vivo; details: safety population
# Description: An Adverse Event (AE) is any untoward, undesired, or unplanned event in the form of signs, symptoms, disease, or laboratory or physiologic observations occurring in a person given a test article or in a clinical study. […] An AE includes, but is not limited to, the following: any clinically significant worsening of a preexisting condition; an AE occurring from overdose of a test article, whether accidental or intentional; overdose is a dose greater than that specified in the protocol; an AE occurring from abuse (e.g., use for nonclinical reasons) of a test article; and an AE that has been associated with the discontinuation of the use of a test article.
# The severity (or intensity) of an AE was classified using the following criteria:
# Concerning relatedness, causality (i.e., whether there was a reasonable possibility that test article caused the event) for all AEs and SAEs was assessed.
# Safety variables include the incidence rate of AEs, change in vital signs, ECG parameters and laboratory test results obtained during the course of the study. For safety analyses, subjects were analyzed according to the treatment actually received.
# Summary tables were provided for all treatment-emergent adverse events (TEAEs). A TEAE is defined as an AE with a start date and time on or after the first dose of test article. […] Additional tabulations provide summaries by SOC and PT of subjects experiencing SAEs, severe TEAEs, TEAEs judged to be related to test article, TEAEs leading to discontinuation of test article, and TEAEs of special interest.
# The following variables were analyzed descriptively: Vital signs (systolic and diastolic BP, pulse rate, body temperature, respiratory rate), including change from Screening by visit; Clinically notable vital signs (meeting predefined criteria as specified in the SAP) by visit. Subjects with notable vital signs data were listed.
# ECG data (RR interval, PR interval, QRS interval, QTc, QTc Bazett's Correction Formula [QTcB], and QTc Fridericia's Correction Formula [QTcF]) was summarized descriptively at each scheduled evaluation, and for the overall worst post-Screening value. Changes from Screening at each visit that a 12-lead ECG was obtained was also provided. An outlier analysis was conducted based on the worst post-Screening value.
# The following variables were analyzed descriptively: Laboratory variables by visit; Change from Screening of laboratory variables by visit; and Clinically notable laboratory values (meeting predefined criteria specified in the SAP) by visit.
# ABSSSI = test: Earlier Phase 3 i.v.-to-oral omadacycline vs linezolid study in ABSSSI: clinical success; assay type: in vivo, human; details: i.v. with switch to oral
# [3] = human, in vivo
# [4] = Cellulitis/erysipelas, actual type, mITT
# [5] = Cellulitis/erysipelas, as randomized, mITT
# [6] = Major Abscess, actual type, mITT
# [7] = Major Abscess, as randomized, mITT
# [8] = Wound Infection, actual type, mITT
# [9] = Wound Infection, as randomized, mITT
structure (smiles),measurement,setting,value
"CC(=O)NCC1CN(c2ccc(N3CCOCC3)c(F)c2)C(=O)O1 (centres unmarked) [Linezolid, N-[[3-(3-fluoro-4-morpholinophenyl)-2-oxooxazolidin-5-yl]methyl]acetamide, reference compound]",Overall clinical response at PTE: Clinical Success,"[1]; Cellulitis/erysipelas, actual type of infection, investigator assessment, mITT",78 (92.9) n (%)
same,Overall clinical response at PTE: Clinical Failure,[1]; [4],1 (1.2) n (%)
same,Overall clinical response at PTE: Clinical Failure or Indeterminate,[1]; [4],6 (7.1) n (%)
same,Overall clinical response at PTE: Indeterminate,[1]; [4],5 (6.0) n (%)
same,Overall clinical response at PTE: Clinical Failure,[1]; [5],1 (1.2) n (%)
same,Overall clinical response at PTE: Clinical Failure or Indeterminate,[1]; [5],6 (7.1) n (%)
same,Overall clinical response at PTE: Indeterminate,[1]; [5],5 (6.0) n (%)
same,Overall clinical response at PTE: Clinical Success,"[1]; Cellulitis/erysipelas, type of infection as randomized, investigator assessment, mITT",78 (92.9) n (%)
same,Overall clinical response at PTE: Clinical Success,"[1]; Major Abscess, actual type of infection, investigator assessment, mITT",49 (79.0) n (%)
same,Overall clinical response at PTE: Clinical Failure,[1]; [6],3 (4.8) n (%)
same,Overall clinical response at PTE: Clinical Failure or Indeterminate,[1]; [6],13 (21.0) n (%)
same,Overall clinical response at PTE: Indeterminate,[1]; [6],10 (16.1) n (%)
same,Overall clinical response at PTE: Clinical Failure,[1]; [7],3 (4.8) n (%)
same,Overall clinical response at PTE: Clinical Failure or Indeterminate,[1]; [7],13 (21.0) n (%)
same,Overall clinical response at PTE: Indeterminate,[1]; [7],10 (16.1) n (%)
same,Overall clinical response at PTE: Clinical Success,"[1]; Major Abscess, type of infection as randomized, investigator assessment, mITT",49 (79.0) n (%)
same,Overall clinical response at PTE: Clinical Success,"[1]; Wound Infection, actual type of infection, investigator assessment, mITT",164 (76.6) n (%)
same,Overall clinical response at PTE: Clinical Failure,[1]; [8],17 (7.9) n (%)
same,Overall clinical response at PTE: Clinical Failure or Indeterminate,[1]; [8],50 (23.4) n (%)
same,Overall clinical response at PTE: Indeterminate,[1]; [8],33 (15.4) n (%)
same,Overall clinical response at PTE: Clinical Failure,[1]; [9],17 (7.9) n (%)
same,Overall clinical response at PTE: Clinical Failure or Indeterminate,[1]; [9],50 (23.4) n (%)
same,Overall clinical response at PTE: Indeterminate,[1]; [9],33 (15.4) n (%)
same,Overall clinical response at PTE: Clinical Success,"[1]; Wound Infection, type of infection as randomized, investigator assessment, mITT",164 (76.6) n (%)
same,"Overall Clinical Success at PTE, %","[1]; baseline pathogen Clostridium perfringens, investigator assessment",(77.8) %
same,"Overall Clinical Success at PTE, %","[1]; baseline pathogen Enterobacter cloacae, investigator assessment",(100.0) %
same,"Overall Clinical Success at PTE, %","[1]; baseline pathogen Enterococcus faecalis VRE, investigator assessment",(100.0) %
same,"Overall Clinical Success at PTE, %","[1]; baseline pathogen Enterococcus faecalis VSE, investigator assessment",(70.0) %
same,"Overall Clinical Success at PTE, %","[1]; baseline pathogen Enterococcus faecalis, investigator assessment",(75.0) %
same,"Overall Clinical Success at PTE, %","[1]; baseline pathogen Enterococcus faecium VSE, investigator assessment",(100.0) %
same,"Overall Clinical Success at PTE, %","[1]; baseline pathogen Enterococcus faecium, investigator assessment",(100.0) %
same,"Overall Clinical Success at PTE, %","[1]; baseline pathogen Escherichia coli, investigator assessment",(100.0) %
same,"Overall Clinical Success at PTE, %","[1]; baseline pathogen Finegoldia magna, investigator assessment",(0.0) %
same,"Overall Clinical Success at PTE, %","[1]; baseline pathogen Klebsiella pneumoniae, investigator assessment",(66.7) %
same,"Overall Clinical Success at PTE, %","[1]; baseline pathogen MRSA, investigator assessment",(79.4) %
same,"Overall Clinical Success at PTE, %","[1]; baseline pathogen MSSA, investigator assessment",(79.2) %
same,"Overall Clinical Success at PTE, %","[1]; baseline pathogen Prevotella denticola, investigator assessment",(0.0) %
same,"Overall Clinical Success at PTE, %","[1]; baseline pathogen Prevotella melaninogenica, investigator assessment",(100.0) %
same,"Overall Clinical Success at PTE, %","[1]; baseline pathogen Staphylococcus aureus, investigator assessment",(79.8) %
same,"Overall Clinical Success at PTE, %","[1]; baseline pathogen Streptococcus agalactiae, investigator assessment",(50.0) %
same,"Overall Clinical Success at PTE, %","[1]; baseline pathogen Streptococcus anginosus group, investigator assessment",(73.3) %
same,"Overall Clinical Success at PTE, %","[1]; baseline pathogen Streptococcus anginosus, investigator assessment",(80.0) %
same,"Overall Clinical Success at PTE, %","[1]; baseline pathogen Streptococcus constellatus, investigator assessment",(71.4) %
same,"Overall Clinical Success at PTE, %","[1]; baseline pathogen Streptococcus intermedius, investigator assessment",(66.7) %
same,"Overall Clinical Success at PTE, %","[1]; baseline pathogen Streptococcus pyogenes, investigator assessment",(56.3) %
same,Overall clinical response at PTE: Clinical Failure,"[1]; investigator assessment, CE-PTE",13 (4.5) n (%)
same,Overall clinical response at PTE: Clinical Success,"[1]; investigator assessment, CE-PTE (N = 284 / N = 292)",279 (95.5) n (%)
same,Overall clinical response at PTE: Clinical Failure,"[1]; investigator assessment, mITT",21 (5.8) n (%)
same,Overall clinical response at PTE: Clinical Failure or Indeterminate,"[1]; investigator assessment, mITT",69 (19.2) n (%)
same,Overall clinical response at PTE: Indeterminate,"[1]; investigator assessment, mITT",48 (13.3) n (%)
same,Overall clinical response at PTE: Clinical Success,"[1]; investigator assessment, mITT (N = 360 per arm)",291 (80.8) n (%)
same,Subjects who died,[2],1 (0.3) n (%)
same,Subjects with at Least One Adverse Events (AE),[2],140 (38.1) n (%)
same,Subjects with at Least One Drug-Related Serious TEAE,[2],1 (0.3) n (%)
same,Subjects with at Least One Drug-Related TEAE,[2],52 (14.2) n (%)
same,Subjects with at Least One Serious TEAE,[2],5 (1.4) n (%)
same,Subjects with at Least One Serious TEAE leading to Death,[2],1 (0.3) n (%)
same,Subjects with at Least One Serious TEAEs leading to premature discontinuation of test article,[2],2 (0.5) n (%)
same,Subjects with at Least One Severe TEAE,[2],7 (1.9) n (%)
same,Subjects with at Least One TEAE Leading to Study Drug Discontinuation,[2],3 (0.8) n (%)
same,Subjects with at Least One TEAE leading to dose interruption,[2],0 n (%)
same,Subjects with at Least One TEAE leading to premature discontinuation of study,[2],1 (0.3) n (%)
same,Subjects with at Least One TEAE leading to premature discontinuation of test article,[2],3 (0.8) n (%)
same,TEAE leading to study drug discontinuation: Cellulitis,[2],0 n (%)
same,TEAE leading to study drug discontinuation: Gastrointestinal Disorders (SOC),[2],0 n (%)
same,TEAE leading to study drug discontinuation: Haematemesis,[2],0 n (%)
same,TEAE leading to study drug discontinuation: Infections And Infestations (SOC),[2],1 (0.3) n (%)
same,TEAE leading to study drug discontinuation: Nausea,[2],0 n (%)
same,TEAE leading to study drug discontinuation: Pregnancy,[2],0 n (%)
same,"TEAE leading to study drug discontinuation: Pregnancy, Puerperium And Perinatal Conditions (SOC)",[2],0 n (%)
same,TEAE leading to study drug discontinuation: Staphylococcal Bacteraemia,[2],0 n (%)
same,TEAE leading to study drug discontinuation: Subcutaneous Abscess,[2],0 n (%)
same,TEAE leading to study drug discontinuation: Vomiting,[2],0 n (%)
same,TEAE leading to study drug discontinuation: Wound Infection,[2],1 (0.3) n (%)
same,TEAE: Alanine Aminotransferase Increased,[2],11 (3.0) n (%)
same,TEAE: Aspartate Aminotransferase Increased,[2],12 (3.3) n (%)
same,TEAE: Cellulitis,[2],9 (2.5) n (%)
same,TEAE: Headache,[2],8 (2.2) n (%)
same,TEAE: Wound Infection,[2],17 (4.6) n (%)
same,Total Number of AEs,[2],250
same,Total Number of TEAEs,[2],239
same,Subjects with at Least One TEAE,[2]; AE overview,137 (37.3) n (%)
same,TEAE: Abdominal Pain Upper,[2]; all severities,4 (1.1) n (%)
same,TEAE: Diarrhea,[2]; all severities,10 (2.7) n (%)
same,TEAE: Nausea,[2]; all severities,28 (7.6) n (%)
same,TEAE: Vomiting,[2]; all severities,11 (3.0) n (%)
same,"Subjects with at Least One TEAE, Mild",[2]; highest severity Mild,85 (23.2) n (%)
same,"TEAE: Abdominal Pain Upper, Mild",[2]; highest severity Mild,4 (1.1) n (%)
same,"TEAE: Abdominal Pain, Mild",[2]; highest severity Mild,1 (0.3) n (%)
same,"TEAE: Diarrhea, Mild",[2]; highest severity Mild,9 (2.5) n (%)
same,"TEAE: Gastrointestinal Disorders (SOC), Mild",[2]; highest severity Mild,44 (12.0) n (%)
same,"TEAE: Nausea, Mild",[2]; highest severity Mild,24 (6.5) n (%)
same,"TEAE: Vomiting, Mild",[2]; highest severity Mild,10 (2.7) n (%)
same,"Subjects with at Least One TEAE, Moderate",[2]; highest severity Moderate,45 (12.3) n (%)
same,"TEAE: Abdominal Pain Upper, Moderate",[2]; highest severity Moderate,0 n (%)
same,"TEAE: Abdominal Pain, Moderate",[2]; highest severity Moderate,1 (0.3) n (%)
same,"TEAE: Diarrhea, Moderate",[2]; highest severity Moderate,1 (0.3) n (%)
same,"TEAE: Gastrointestinal Disorders (SOC), Moderate",[2]; highest severity Moderate,8 (2.2) n (%)
same,"TEAE: Nausea, Moderate",[2]; highest severity Moderate,4 (1.1) n (%)
same,"TEAE: Vomiting, Moderate",[2]; highest severity Moderate,1 (0.3) n (%)
same,"Subjects with at Least One TEAE, Severe",[2]; highest severity Severe,7 (1.9) n (%)
same,"TEAE: Abdominal Pain Upper, Severe",[2]; highest severity Severe,0 n (%)
same,"TEAE: Abdominal Pain, Severe",[2]; highest severity Severe,0 n (%)
same,"TEAE: Diarrhea, Severe",[2]; highest severity Severe,0 n (%)
same,"TEAE: Gastrointestinal Disorders (SOC), Severe",[2]; highest severity Severe,0 n (%)
same,"TEAE: Nausea, Severe",[2]; highest severity Severe,0 n (%)
same,"TEAE: Vomiting, Severe",[2]; highest severity Severe,0 n (%)
same,Subjects with at Least One TEAE,[2]; most frequent (≥2%) TEAEs table,137 (37.3) n (%)
same,clinical success based on investigator's assessment of clinical response,ABSSSI; 7-14 days after the last dose,83.6%
same,clinical success based on a reduction of lesion size,"ABSSSI; 48-72 hours after the first dose, FDA primary analysis population (N=627)",85.5%
same,"discontinuation due to TEAE, % of subjects",[3],2.2%
same,"serious TEAEs, % of subjects",[3],2.5%
same,"treatment-emergent adverse events (TEAEs), % of subjects",[3],45.7%
